According to PMC9780108, “An intrinsically disordered antimicrobial peptide dendrimer from stereorandomized virtual screening” (Cell Reports. Physical Science, 2022):
Values after ≈ are worked out from the molar mass of the structure shown. Where two headings read alike, the source gives them in different places. Residues, ends and D or L forms follow the SMILES beside them.

Assays:
P. aeruginosa PAO1 [1] = assay: DiSC3(5) inner membrane depolarization assay; format: cell-based, Pseudomonas aeruginosa; settings: PAO1 in HEPES buffer pH 7.4, 2 μM DiSC3(5), up to 64 μg/mL, read within 5 min
Protocol: page 29: 11. DiSC3(5) Membrane Depolarization Assay A single colony of Pseudomonas aeruginosa PAO1 was grown overnight with shaking (150 rpm) in LB-broth (5 mL) at 37 °C. 100 μL of the overnight culture was regrown in 10 mL LB- broth with shaking (200 rpm) to the exponential phase OD 600 = 1 (10^9 CFU/mL). Bacteria were washed once with HEPES buffer (5 mM HEPES, 5 mM glucose, pH 7.4) and diluted to OD 600 = 0.4. Stock solution of 10 mM of DiSC3(5) was prepared in DMSO. Stock solutions of 1 mg/mL of the compounds were prepared in sterilized milli-Q water and diluted to the beginning concentration of 128 μg/mL in 200 μL HEPES buffer containing […] the fluorescent probe DiSC3(5) 4 μM. The diluted samples were added to the first well of 96-well plates (black wells, flat bottom, BRAND® GmbH Wertheim, Germany) and diluted serially by 1/2. 100 μL of the bacterial suspension in HEPES buffer (without DiSC3(5)) were added to each well. In this case, the final OD of bacteria was 0.2, the final concentration of peptide in the first column is 64 μg/mL and DiSC3(5) 2 μM. The control wells are buffer containing DiSC3(5) and bacterial suspension containing DiSC3(5) in HEPES buffer. The plate was measured with a Tecan instrument Infinite M1000 within 5 min. The plate was enabled to shake for 5 sec before measurement. […]

P. aeruginosa PAO1 [2] = assay: PI cell permeabilization assay (flow cytometry); format: cell-based, Pseudomonas aeruginosa; settings: PAO1 (OD600 = 1) incubated 20 min at 37°C, PI 5 µg/mL
Protocol: page 31: 12. Cell Membrane Permeability Assay Propidium iodide (PI) was used as the fluorescent dye to evaluate integrity of bacterial membranes. A single colony of Pseudomonas aeruginosa PAO1 was grown overnight with shaking (150 rpm) in LB-broth (5 mL) at 37 °C. 100 μL of the overnight culture was regrown in 10 mL LB-broth to the exponential phase OD600 1 (10^9 CFU/mL). Bacteria was washed with MH and then re-suspended to a working concentration of OD600 = 1. AMPDs and polymyxin B (stock solution 1 mg/mL) were added at different final concentrations ( 16, 32 and 64 μg/mL). Samples were incubated with shaking (150 rpm) at 37°C for 20 minutes before samples were centrifuged at 14 000 rpm for 3 min. Bacteria sample was washed twice with PBS and stained with PI 5 µg/mL in PBS with shaking (150 rpm) at 37°C for 20 minutes. Bacteria sample was washed 5 times with PBS and the fluorescence intensity of bacteria suspensions was observed and recorded on a ImageStream ® X Mark II Imaging Flow Cytometer with a 488 nm laser , bacteria cells wi th fluorescent intensity higher than 2 × 104 is defined as PI positive cells. Percentage of PI positive cells was calculated by IDEA S workstation . S30

[3] = test system: S aureus COL (methicillin-resistant Staphylococcus aureus)
HEK293 cell line = format: cell-based
Procedure, shortened: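 HEK293 cells seeded at 2 × 10³/well, incubated 48 h at 37 °C with serially diluted compounds (stock 2 mg/mL) in DMEM with 10% FBS. AlamarBlue added at 10% final for 3–5 h; fluorescence ex 560/em 590 nm, normalized to untreated cells.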

human red blood cells = assay: Hemolysis assay (MHC); settings: Table 1; human red blood cells in PBS (pH 7.4), 4 h, visual inspection; two independent experiments in duplicate
P. aeruginosa PAO1 [4] = test system: P. aeruginosa PAO1
[5] = MH medium pH 7.4, 16–20 h at 37°C, two independent experiments in duplicate
[6] = broth microdilution, Müller-Hinton medium pH 5.0, 16–20 h at 37°C, two independent experiments in duplicate
[7] = broth microdilution, Müller-Hinton medium pH 8.0, 16–20 h at 37°C, two independent experiments in duplicate
[8] = Table 1, broth microdilution, Müller-Hinton medium pH 7.4, 16–20 h at 37°C, two independent experiments in duplicate

Compound: PMB nonapeptide [PMBN]
- Inner membrane depolarization (DiSC3(5) fluorescence), words (P. aeruginosa PAO1 [1]): no effect on inner membranes
- Cell permeabilization (PI), percentage of PI-positive cells (P. aeruginosa PAO1 [2]; 16 μg/mL): 40%
- Cell permeabilization (PI), percentage of PI-positive cells (P. aeruginosa PAO1 [2]; 32 μg/mL): 38%
- Cell permeabilization (PI), percentage of PI-positive cells (P. aeruginosa PAO1 [2]; 64 μg/mL): 37%

Compound: polymyxin B [PMB, reference compound]
- MIC, E. cloacae (E. cloacae; [5]): 0.5 mg/L
- MIC at pH 5.0, S aureus COL [3, 6]: > 64 μg/mL
- MIC at pH 7.4, S aureus COL ([3]; broth microdilution, Müller-Hinton medium pH 7.4, 16–20 h at 37°C, two independent experiments in duplicate): > 64 μg/mL
- MIC at pH 8.0, S aureus COL [3, 7]: 4 μg/mL
- MIC at pH 7.4, A. baumannii ATCC 19606 (A. baumannii ATCC 19606; [8]): 0.25 μg/mL
- MIC at pH 5.0, A. baumannii ATCC 19606 (A. baumannii ATCC 19606; [6]): 1 μg/mL
- MIC at pH 8.0, A. baumannii ATCC 19606 (A. baumannii ATCC 19606; [7]): 0.25 μg/mL
- MIC, P. aeruginosa PA14 (P. aeruginosa PA14; [5]): 0.5 mg/L
- MIC, S. maltophilia (S. maltophilia; [5]): 4 mg/L
- MIC, P. aeruginosa ZEM9A (P. aeruginosa ZEM9A; clinical isolate, MH medium pH 7.4, 16–20 h at 37°C, two independent experiments in duplicate): 64 mg/L
- MIC at pH 7.4, K. pneumoniae NCTC 418 (K. pneumoniae NCTC 418; [8]): 0.25 μg/mL
- MIC at pH 5.0, K. pneumoniae NCTC 418 (K. pneumoniae NCTC 418; [6]): 8 μg/mL
- MIC at pH 8.0, K. pneumoniae NCTC 418 (K. pneumoniae NCTC 418; [7]): 0.25 μg/mL
- MIC, K. pneumoniae OXA-48 (K. pneumoniae OXA-48; carbapenem-resistant strain, MH medium pH 7.4, 16–20 h at 37°C, two independent experiments in duplicate): 1 mg/L
- Inner membrane depolarization (DiSC3(5) fluorescence), words (P. aeruginosa PAO1 [1]): did not depolarize the inner membrane
- MIC, B. cenocepacia (B. cenocepacia; [5]): >64 mg/L
- MIC at pH 7.4, E. coli W3110 (E. coli W3110; [8]): 0.25 μg/mL
- MIC at pH 5.0, E. coli W3110 (E. coli W3110; [6]): 0.02 μg/mL
- MIC at pH 8.0, E. coli W3110 (E. coli W3110; [7]): 0.13 μg/mL
- IC50 HEK293 (HEK293 cell line; HEK293 cell line, 48 h at 37°C, DMEM 10% FBS, AlamarBlue, mean ± SD, three independent experiments in triplicates): 346 ± 20 mg/L
- MHC (minimum hemolytic concentration) (human red blood cells): >2,000 μg/mL
- Cell permeabilization (PI), percentage of PI-positive cells (P. aeruginosa PAO1 [2]; 16 μg/mL): 96%
- Cell permeabilization (PI), percentage of PI-positive cells (P. aeruginosa PAO1 [2]; 32 μg/mL): 94%
- Cell permeabilization (PI), percentage of PI-positive cells (P. aeruginosa PAO1 [2]; 64 μg/mL): 96%
- MIC, P. aeruginosa ZEM-1A (P. aeruginosa ZEM-1A; MDR clinical isolate, MH medium pH 7.4, 16–20 h at 37°C, two independent experiments in duplicate): 0.5 mg/L
- MIC, S. aureus Newman (S. aureus Newman; [5]): >64 mg/L
- MIC at pH 7.4, P. aeruginosa PAO1 (P. aeruginosa PAO1 [4]; [8]): 0.5 μg/mL
- MIC at pH 5.0, P. aeruginosa PAO1 (P. aeruginosa PAO1 [4]; [6]): 0.03 μg/mL
- MIC at pH 8.0, P. aeruginosa PAO1 (P. aeruginosa PAO1 [4]; [7]): 0.5 μg/mL

Compound: CC(C)C[C@H](NC(=O)[C@H](CCCCN)NC(=O)[C@H](CCCCN)NC(=O)[C@H](CCCCNC(=O)[C@H](CC(C)C)NC(=O)[C@H](CC(C)C)NC(=O)[C@H](CCCCN)NC(=O)[C@H](CCCCNC(=O)[C@H](CC(C)C)NC(=O)[C@H](CCCCN)NC(=O)[C@H](CCCCNC(=O)[C@H](CC(C)C)NC(=O)[C@@H](N)CCCCN)NC(=O)[C@H](CC(C)C)NC(=O)[C@@H](N)CCCCN)NC(=O)[C@H](CC(C)C)NC(=O)[C@H](CCCCN)NC(=O)[C@H](CCCCNC(=O)[C@H](CC(C)C)NC(=O)[C@@H](N)CCCCN)NC(=O)[C@H](CC(C)C)NC(=O)[C@@H](N)CCCCN)NC(=O)[C@H](CC(C)C)NC(=O)[C@H](CC(C)C)NC(=O)[C@H](CCCCN)NC(=O)[C@H](CCCCNC(=O)[C@H](CC(C)C)NC(=O)[C@H](CCCCN)NC(=O)[C@H](CCCCNC(=O)[C@H](CC(C)C)NC(=O)[C@@H](N)CCCCN)NC(=O)[C@H](CC(C)C)NC(=O)[C@@H](N)CCCCN)NC(=O)[C@H](CC(C)C)NC(=O)[C@H](CCCCN)NC(=O)[C@H](CCCCNC(=O)[C@H](CC(C)C)NC(=O)[C@@H](N)CCCCN)NC(=O)[C@H](CC(C)C)NC(=O)[C@@H](N)CCCCN)C(N)=O [L-T7, reference compound] (HELM PEPTIDE1{K.L.K.K.L.K.K.L.L.K.K.K.L.[am]}|PEPTIDE2{K.L}|PEPTIDE3{K.L.K.K.L.K.K.L.L}|PEPTIDE4{K.L}|PEPTIDE5{K.L.K.K.L}|PEPTIDE6{K.L}|PEPTIDE7{K.L.K.K.L}|PEPTIDE8{K.L}$PEPTIDE1,PEPTIDE2,3:R3-2:R2|PEPTIDE3,PEPTIDE4,3:R3-2:R2|PEPTIDE5,PEPTIDE6,3:R3-2:R2|PEPTIDE7,PEPTIDE8,3:R3-2:R2|PEPTIDE1,PEPTIDE7,6:R3-5:R2|PEPTIDE1,PEPTIDE3,10:R3-9:R2|PEPTIDE3,PEPTIDE5,6:R3-5:R2$$$V2.0)
- MIC, E. cloacae (E. cloacae; pH 7.4): 8 mg/L (≈ 1.64 µM)
- MIC at pH 5.0, S aureus COL ([3]; COL (methicillin-resistant, pH 5)): > 64 μg/mL
- MIC at pH 7.4, S aureus COL ([3]; COL (methicillin-resistant, pH 7.4)): > 64 μg/mL
- MIC at pH 8.0, S aureus COL ([3]; COL (methicillin-resistant, pH 8)): 4 μg/mL
- MIC at pH 5.0, A. baumannii ATCC 19606 (A. baumannii ATCC 19606; ATCC 19606, pH 5): 16 μg/mL
- MIC at pH 7.4, A. baumannii ATCC 19606 (A. baumannii ATCC 19606; ATCC 19606, pH 7.4): 8 μg/mL
- MIC at pH 8.0, A. baumannii ATCC 19606 (A. baumannii ATCC 19606; ATCC 19606, pH 8): 2–4 μg/mL
- MIC, P. aeruginosa PA14 (P. aeruginosa PA14; PA14, pH 7.4): 8 mg/L (≈ 1.64 µM)
- MIC, S. maltophilia (S. maltophilia; pH 7.4): 4 mg/L (≈ 0.818 µM)
- MIC, P. aeruginosa ZEM9A (P. aeruginosa ZEM9A; ZEM9A, pH 7.4): 8 mg/L (≈ 1.64 µM)
- MIC at pH 5.0, K. pneumoniae NCTC 418 (K. pneumoniae NCTC 418; NCTC 418, pH 5): > 64 μg/mL
- MIC at pH 7.4, K. pneumoniae NCTC 418 (K. pneumoniae NCTC 418; NCTC 418, pH 7.4): 32 μg/mL
- MIC at pH 8.0, K. pneumoniae NCTC 418 (K. pneumoniae NCTC 418; NCTC 418, pH 8): 8 μg/mL
- MIC, K. pneumoniae OXA-48 (K. pneumoniae OXA-48; OXA-48, pH 7.4): 16 mg/L (≈ 3.27 µM)
- MIC, B. cenocepacia (B. cenocepacia; pH 7.4): >64 mg/L
- MIC at pH 5.0, E. coli W3110 (E. coli W3110; W3110, pH 5): 16 μg/mL
- MIC at pH 7.4, E. coli W3110 (E. coli W3110; W3110, pH 7.4): 4 μg/mL
- MIC at pH 8.0, E. coli W3110 (E. coli W3110; W3110, pH 8): 2 μg/mL
- IC50 HEK293 (HEK293 cell line; 48 h): 70 ± 6 mg/L (≈ 14.3 µM)
- MIC, P. aeruginosa ZEM-1A (P. aeruginosa ZEM-1A; ZEM-1A, pH 7.4): 4 mg/L (≈ 0.818 µM)
- MIC, S. aureus Newman (S. aureus Newman; Newman, pH 7.4): >64 mg/L
- MIC at pH 5.0, P. aeruginosa PAO1 (P. aeruginosa PAO1 [4]; PAO1, pH 5): 16 μg/mL
- MIC at pH 7.4, P. aeruginosa PAO1 (P. aeruginosa PAO1 [4]; PAO1, pH 7.4): 8 μg/mL
- MIC at pH 8.0, P. aeruginosa PAO1 (P. aeruginosa PAO1 [4]; PAO1, pH 8): 2–4 μg/mL
